Assay results: ChEMBL document CHEMBL1201862, “PubChem BioAssay data set” (2004)
Active and inactive are the calls of the source.

How the values were obtained:
Assay type in all cases: functional
Leucine aminopeptidase = molecular target: T1, Leucine aminopeptidase (Plasmodium falciparum 3D7, UniProt Q8IL11); experiment: P. falciparum M17LAP inhibitors, primary screen, biochemical, fluorogenic H-Leu-NHMec substrate, 1536-well (AID 1619)
T1 sequence (Q8IL11 whole entry): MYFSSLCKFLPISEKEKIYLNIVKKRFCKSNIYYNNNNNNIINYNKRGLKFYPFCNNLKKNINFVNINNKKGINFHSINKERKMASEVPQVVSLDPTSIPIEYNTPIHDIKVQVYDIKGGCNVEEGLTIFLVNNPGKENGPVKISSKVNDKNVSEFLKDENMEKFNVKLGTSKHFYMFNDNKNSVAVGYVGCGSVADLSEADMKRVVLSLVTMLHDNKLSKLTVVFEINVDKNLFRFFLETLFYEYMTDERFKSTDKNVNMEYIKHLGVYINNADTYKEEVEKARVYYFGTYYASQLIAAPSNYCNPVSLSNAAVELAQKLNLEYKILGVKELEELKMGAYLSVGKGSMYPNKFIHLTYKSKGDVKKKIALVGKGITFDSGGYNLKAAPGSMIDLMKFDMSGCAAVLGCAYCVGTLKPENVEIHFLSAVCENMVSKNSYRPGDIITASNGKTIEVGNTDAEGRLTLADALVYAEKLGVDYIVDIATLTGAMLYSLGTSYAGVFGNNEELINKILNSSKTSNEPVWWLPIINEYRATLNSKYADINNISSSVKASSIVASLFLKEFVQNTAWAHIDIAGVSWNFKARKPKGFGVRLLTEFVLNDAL

[1] = molecular target: Induced myeloid leukemia cell differentiation protein Mcl-1 (Homo sapiens, UniProt Q07820)
[2] = molecular target: T2, Short transient receptor potential channel 4 (Mus musculus, UniProt Q9QUQ5); experiment: mouse TRPC4 channel inhibitors, dose response, cell-based, HEK293 TRPC4/mu-opioid, Fluo-4 calcium (AID 434942);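 also: potency of inhibitors blocking the TRPC4 calcium response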
T2 sequence (Q9QUQ5 whole entry): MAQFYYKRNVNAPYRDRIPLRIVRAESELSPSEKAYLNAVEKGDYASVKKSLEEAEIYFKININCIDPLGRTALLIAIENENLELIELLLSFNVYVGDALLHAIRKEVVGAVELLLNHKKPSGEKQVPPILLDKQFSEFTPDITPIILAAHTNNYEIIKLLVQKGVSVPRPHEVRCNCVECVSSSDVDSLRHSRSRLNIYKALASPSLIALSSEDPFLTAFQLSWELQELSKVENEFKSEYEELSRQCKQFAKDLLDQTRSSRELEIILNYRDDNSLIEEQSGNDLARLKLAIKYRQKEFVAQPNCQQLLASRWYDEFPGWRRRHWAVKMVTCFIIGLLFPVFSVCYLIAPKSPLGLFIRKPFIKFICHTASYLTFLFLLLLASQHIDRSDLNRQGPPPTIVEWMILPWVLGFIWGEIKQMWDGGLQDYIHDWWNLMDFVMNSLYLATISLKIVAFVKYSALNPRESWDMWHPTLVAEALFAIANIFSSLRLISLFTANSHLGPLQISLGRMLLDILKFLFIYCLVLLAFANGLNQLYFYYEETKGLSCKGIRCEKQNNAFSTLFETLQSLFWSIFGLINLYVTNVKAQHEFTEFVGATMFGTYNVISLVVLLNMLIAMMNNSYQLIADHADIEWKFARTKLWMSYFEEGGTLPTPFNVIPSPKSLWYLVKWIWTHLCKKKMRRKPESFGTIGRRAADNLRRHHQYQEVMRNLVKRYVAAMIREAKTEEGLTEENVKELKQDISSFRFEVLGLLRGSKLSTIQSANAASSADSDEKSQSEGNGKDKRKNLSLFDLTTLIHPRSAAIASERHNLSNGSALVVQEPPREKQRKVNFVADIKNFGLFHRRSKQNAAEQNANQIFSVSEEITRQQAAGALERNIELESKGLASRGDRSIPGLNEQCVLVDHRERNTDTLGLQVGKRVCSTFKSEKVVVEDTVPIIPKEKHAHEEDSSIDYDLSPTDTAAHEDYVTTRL

Genome polyprotein = Genome polyprotein (dengue virus type 2, UniProt P29990); experiment: Dengue-2 NS5 methyltransferase inhibitors, primary screen, biochemical, confirmation dose response (AID 588689)
[3] = molecular target: T3, Replicative DNA helicase DnaB (Mycobacterium tuberculosis, UniProt P9WMR3); experiment: DnaB intein splicing inhibitors, dose response, biochemical, cell-free fluorescence (AID 449749)
T3 sequence (P9WMR3 whole entry): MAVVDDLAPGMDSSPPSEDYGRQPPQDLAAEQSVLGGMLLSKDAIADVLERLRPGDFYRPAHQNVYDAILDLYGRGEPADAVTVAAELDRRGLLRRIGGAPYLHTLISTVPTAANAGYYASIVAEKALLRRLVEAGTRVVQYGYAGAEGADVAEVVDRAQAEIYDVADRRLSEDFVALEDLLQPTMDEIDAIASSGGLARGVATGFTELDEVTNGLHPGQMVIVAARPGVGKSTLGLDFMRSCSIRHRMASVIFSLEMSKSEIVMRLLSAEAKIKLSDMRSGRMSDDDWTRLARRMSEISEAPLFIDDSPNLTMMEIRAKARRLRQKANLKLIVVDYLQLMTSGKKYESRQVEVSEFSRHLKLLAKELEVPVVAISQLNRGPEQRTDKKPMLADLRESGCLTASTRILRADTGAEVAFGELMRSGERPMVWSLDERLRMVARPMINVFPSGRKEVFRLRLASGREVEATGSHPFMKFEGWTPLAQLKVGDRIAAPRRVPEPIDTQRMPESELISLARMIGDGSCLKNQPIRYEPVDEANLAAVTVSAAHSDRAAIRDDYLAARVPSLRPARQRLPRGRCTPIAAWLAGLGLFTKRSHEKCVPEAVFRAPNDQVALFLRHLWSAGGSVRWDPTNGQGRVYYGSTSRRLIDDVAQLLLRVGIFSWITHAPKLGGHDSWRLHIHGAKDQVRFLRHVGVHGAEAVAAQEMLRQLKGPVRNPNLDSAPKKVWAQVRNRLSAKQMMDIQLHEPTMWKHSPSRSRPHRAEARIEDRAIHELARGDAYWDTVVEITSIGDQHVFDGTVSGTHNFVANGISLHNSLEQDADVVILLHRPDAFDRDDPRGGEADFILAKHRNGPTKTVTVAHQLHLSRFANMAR

Protein RecA = molecular target: T4, Protein RecA (Mycobacterium tuberculosis, UniProt P9WHJ3); experiment: Fluorescence Cell-Free Homogeneous Dose Retest to Identify Inhibitors of RecA-Intein Splicing Activity. [Related pubchem assays (depositor defined):AID2097, AID2223, AID489010, AID492950]
T4 sequence (P9WHJ3 whole entry): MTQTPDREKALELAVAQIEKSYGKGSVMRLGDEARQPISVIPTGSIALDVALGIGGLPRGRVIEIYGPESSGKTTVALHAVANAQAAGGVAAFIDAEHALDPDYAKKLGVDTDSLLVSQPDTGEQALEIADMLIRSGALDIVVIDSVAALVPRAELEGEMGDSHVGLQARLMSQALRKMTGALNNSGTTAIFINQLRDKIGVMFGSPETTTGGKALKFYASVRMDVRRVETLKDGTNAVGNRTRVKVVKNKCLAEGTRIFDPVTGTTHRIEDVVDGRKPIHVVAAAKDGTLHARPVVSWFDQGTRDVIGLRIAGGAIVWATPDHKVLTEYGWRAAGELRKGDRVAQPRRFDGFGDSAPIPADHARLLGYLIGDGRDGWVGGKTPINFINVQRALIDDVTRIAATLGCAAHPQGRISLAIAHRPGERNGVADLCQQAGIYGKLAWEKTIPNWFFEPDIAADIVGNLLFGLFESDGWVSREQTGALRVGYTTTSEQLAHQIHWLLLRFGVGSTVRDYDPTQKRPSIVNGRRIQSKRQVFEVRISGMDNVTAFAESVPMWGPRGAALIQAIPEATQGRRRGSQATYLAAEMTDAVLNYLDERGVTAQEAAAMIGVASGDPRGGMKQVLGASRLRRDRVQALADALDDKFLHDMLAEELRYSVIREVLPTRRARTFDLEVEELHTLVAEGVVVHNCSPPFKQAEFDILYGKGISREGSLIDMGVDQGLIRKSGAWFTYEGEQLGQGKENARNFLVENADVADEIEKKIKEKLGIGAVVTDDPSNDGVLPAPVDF

[4] = growth suppression of PTEN-null colon cells, dose response, cell-based, HCT116 PTEN knockout (AID 1047);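 also: HCT116 colon tumor cells with PTEN knocked out; cells exposed to compound for 60 hours before readout; potency for loss of cell viability measured by luminescence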
[5] = growth suppression of beta-catenin-knockout colon cells, dose response, cell-based, HCT116, human colon tumor (AID 1045);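 also: HCT116 colon tumor cells with beta catenin knocked out; cells exposed to compound for 60 hours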
[6] = molecular target: T5, DNA repair and recombination protein RAD54-like (Homo sapiens, UniProt Q92698); experiment: inhibitors of human RAD54 branch migration, confirmation, biochemical, fluorescence, cherry-picked samples, dose series (AID 651657)
T5 sequence (Q92698 whole entry): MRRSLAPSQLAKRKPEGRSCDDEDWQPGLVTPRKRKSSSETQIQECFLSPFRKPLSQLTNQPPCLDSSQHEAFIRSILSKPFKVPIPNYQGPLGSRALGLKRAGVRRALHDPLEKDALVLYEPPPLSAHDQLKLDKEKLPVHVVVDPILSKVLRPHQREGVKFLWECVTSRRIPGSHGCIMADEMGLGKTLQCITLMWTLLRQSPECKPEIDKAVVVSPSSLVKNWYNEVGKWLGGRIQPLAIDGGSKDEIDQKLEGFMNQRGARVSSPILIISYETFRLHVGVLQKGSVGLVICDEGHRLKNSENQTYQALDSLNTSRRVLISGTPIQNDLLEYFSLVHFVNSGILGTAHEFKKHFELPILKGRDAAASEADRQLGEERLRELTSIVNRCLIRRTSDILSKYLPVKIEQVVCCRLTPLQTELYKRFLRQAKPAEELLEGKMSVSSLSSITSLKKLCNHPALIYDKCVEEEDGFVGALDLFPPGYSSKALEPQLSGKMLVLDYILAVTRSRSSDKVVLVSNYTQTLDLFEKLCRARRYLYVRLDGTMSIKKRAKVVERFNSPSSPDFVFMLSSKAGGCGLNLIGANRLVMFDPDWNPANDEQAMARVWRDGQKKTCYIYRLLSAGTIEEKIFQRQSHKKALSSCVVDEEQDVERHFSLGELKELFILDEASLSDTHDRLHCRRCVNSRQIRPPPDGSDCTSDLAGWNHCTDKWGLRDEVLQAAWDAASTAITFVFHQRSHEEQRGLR

P388/ADR = experiment: cells; details: Mus musculus
SN12K1 = experiment: cells; details: Homo sapiens
P388 = experiment: cells; details: Mus musculus

Chain of Genome polyprotein (P29990 2492-3391 limits assumed): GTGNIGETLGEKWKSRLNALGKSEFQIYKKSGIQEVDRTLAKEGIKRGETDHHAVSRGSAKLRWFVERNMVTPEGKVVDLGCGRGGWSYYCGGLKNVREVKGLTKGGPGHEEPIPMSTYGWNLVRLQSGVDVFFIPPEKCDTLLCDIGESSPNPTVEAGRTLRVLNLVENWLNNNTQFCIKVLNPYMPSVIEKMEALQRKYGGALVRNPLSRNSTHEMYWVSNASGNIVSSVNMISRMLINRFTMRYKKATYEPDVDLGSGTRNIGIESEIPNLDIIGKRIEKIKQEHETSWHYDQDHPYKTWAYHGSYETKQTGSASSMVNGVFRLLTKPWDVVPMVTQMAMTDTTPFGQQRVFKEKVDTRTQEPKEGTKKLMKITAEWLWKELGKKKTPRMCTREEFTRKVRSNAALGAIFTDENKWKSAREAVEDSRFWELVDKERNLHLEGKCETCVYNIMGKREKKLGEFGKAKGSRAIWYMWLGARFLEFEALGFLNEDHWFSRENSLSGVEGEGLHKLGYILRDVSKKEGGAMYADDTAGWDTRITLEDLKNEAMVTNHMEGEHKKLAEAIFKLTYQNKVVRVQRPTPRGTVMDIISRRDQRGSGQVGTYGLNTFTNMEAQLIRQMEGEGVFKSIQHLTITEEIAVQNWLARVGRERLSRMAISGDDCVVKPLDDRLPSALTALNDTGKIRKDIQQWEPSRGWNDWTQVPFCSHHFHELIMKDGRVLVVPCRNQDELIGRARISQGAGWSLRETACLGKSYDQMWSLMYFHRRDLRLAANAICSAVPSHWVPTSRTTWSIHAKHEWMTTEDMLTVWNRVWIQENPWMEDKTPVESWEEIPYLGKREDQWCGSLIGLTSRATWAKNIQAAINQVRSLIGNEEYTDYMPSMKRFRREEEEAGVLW
Chain of Induced myeloid leukemia cell differentiation protein Mcl-1 (Q07820 whole entry): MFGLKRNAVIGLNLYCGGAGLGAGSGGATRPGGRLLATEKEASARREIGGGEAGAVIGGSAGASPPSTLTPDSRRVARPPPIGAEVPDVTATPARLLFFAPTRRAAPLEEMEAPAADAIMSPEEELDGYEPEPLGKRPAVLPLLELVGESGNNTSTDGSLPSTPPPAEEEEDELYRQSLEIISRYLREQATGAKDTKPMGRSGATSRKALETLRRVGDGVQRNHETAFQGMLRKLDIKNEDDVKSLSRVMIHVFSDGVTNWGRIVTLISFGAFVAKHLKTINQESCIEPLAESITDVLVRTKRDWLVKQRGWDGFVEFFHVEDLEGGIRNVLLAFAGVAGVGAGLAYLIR

Structure (SMILES) | GI50 (P388/ADR) | GI50 (SN12K1) | GI50 (P388) | also measured
COc1ccc(CNc2nc3nc(-c4ccccc4)cc(O)n3n2)cc1OC | – | – | – | IC50 (Leucine aminopeptidase): 24.2 µM (active)
CCOc1ccc(NC(=O)CSCC(=O)O)cc1 | – | – | – | IC50 (Leucine aminopeptidase): 9.94 µM (active)
Cc1[nH]c2ccccc2c1/C=C/c1nc2ccccc2c(=O)[nH]1 | – | – | – | IC50 [1]: 5.55 µM (active)
CCc1ccc(NC(=O)C2CCCCC2C(=O)O)cc1 (centres undefined) | – | – | – | IC50 (Leucine aminopeptidase): 12.1 µM (active)
CC(/C=C1\SC(=S)N(C(C(=O)O)C(C)C)C1=O)=C\c1ccccc1 (centres undefined) | – | – | – | EC50 [2]: 5.96 µM (active); IC50 (Genome polyprotein): 34.3 µM (active)
CC1CCN(S(=O)(=O)c2ccc(NC(=O)CSc3ncccc3C(=O)O)cc2)CC1 | – | – | – | IC50 (Leucine aminopeptidase): 9.68 µM (active)
CC1=NN(c2ccccc2)C(=O)/C1=C\c1ccc(Oc2ccc([N+](=O)[O-])cc2[N+](=O)[O-])cc1 | – | – | – | AC50 [3]: 3.66 µM (active); EC50 (Protein RecA): 5.33 µM (active); IC50 (Genome polyprotein): 19.3 µM (active)
O=C(NC1CN2CCC1CC2)c1cc(Cl)c([N+](=O)[O-])c2nc[nH]c12 (centres undefined) | – | – | – | EC50 [4]: 16.3 µM (active); EC50 [5]: 12.1 µM (active); AC50 [6]: 41.6 µM (active)
c1ccc2c(c1)SP1Sc3ccccc3P21 (centres undefined) | 28.2 µM (inactive) | 56.5 µM (inactive) | 54.2 µM (inactive) | –
COc1cccc2c1C(=O)c1c(O)c3c(c(O)c1C2=O)C[C@@](O)(C(C)=O)C[C@@H]3OC1CC(N(C)C)C(O)C(C)O1 (some centres undefined) | 0.01 µM (active) | 0.01 µM (active) | 0.01 µM (active) | –
CN(C)C(=O)OCOC(=O)N(C)C | > 100 µM (inactive) | > 100 µM (inactive) | 66.8 µM (inactive) | –
CC1(C)OC2CC(=O)OCC23C1CC(=O)C1(C)C3CCC2(C)C(c3ccoc3)OC(=O)C3OC321 (centres undefined) | > 125 µM (inactive) | 119 µM (inactive) | > 39.5 µM (inactive) | –
COc1cc(C2c3cc4c(cc3[C@@H](Nc3ccc5c(c3)OCO5)C3COC(=O)[C@H]23)OCO4)cc(OC)c1O (some centres undefined) | 0.0548 µM (active) | < 0.0414 µM (active) | < 0.01 µM (active) | –
Cc1sccc1/C=N/NC(=O)c1cccc2ccccc12 | – | – | – | IC50 [1]: 21.1 µM (not active)
COc1cc([C@@H]2c3cc4c(c(O)c3C[C@H]3COC(=O)[C@@H]32)OCO4)cc(OC)c1OC [BETA-PELTATIN A] | 0.015 µM (active) | – | 0.015 µM (active) | –
Nc1ccc2c(c1)CN1C(=O)c3ccccc3C1=N2 [DANIQUIDONE] | 24.8 µM (inactive) | 23.6 µM (inactive) | 4.36 µM (inactive) | –
